Results reported in patent US11731977B2, “SGC stimulators” (Cyclerion Therapeutics, Inc., priority 2016, dated 2023).
Marks after values point to notes of the source that are not given here.

Assays:
[1] = system: cGMP in rat CSF; test: Rat CSF biomarker (cGMP) measurement (Example 7); format: in vivo
Procedure: This experiment was to determine the effect of different doses of a compound of the invention on the cGMP response as well as the compound concentration in rat CSF and compound concentration in rat plasma. Protocol. Each rat was sampled one time or multiple times with 3 or more days in between each dosing. Day before the experiment. Fast rats overnight with ad libitum access to water. Day of the experiment. Compound and cyclic guanosine monophosphate (cGMP) in rat CSF was determined following oral dosing. Male Sprague-Dawley rats with an indwelling catheter placed in the cisterna magna were used. The rats were dosed with 0 mg/kg (n=15), 3 mg/kg (n=19) and 10 mg/kg (n=20) of a compound of the invention formulated as a suspension in 0.5% methylcellulose, 0.5% Tween80. PO doses were administered by oral gavage and delivered to the stomach using a syringe and gavage tube. Following oral dosage administration, the gavage tube was flushed with approximately 0.5 mL of water to ensure complete delivery of the full dose. Plasma and CSF samples were collected under isoflurane anesthesia as follows: samples of CSF were collected at 1 hour and 6 hours post-dosing and samples of blood were collected 1 h post-dosing. CSF samples were collected through the intracisternal catheter. Approximately 20 μL of CSF and discard (dead volume is 14-16 μL); then withdraw approximately 50 μL of CSF in eppendorf tubes containing 5 μL of glacial acetic acid. Snap freeze CSF by immersion in liquid nitrogen. Blood samples (0.25 mL) were collected through retro-orbital sampling. These samples were kept on ice until processed for plasma. Blood samples were centrifuged at 3200 rpm for 10 minutes at approximately 5° C. within 1 hour of collection. Plasma was directly transferred to a 96-well plate tube (0.125 mL). Plug caps were placed on the tubes and the tubes frozen at approximately −70° C. and stored until analysis. Plasma was collected and analyzed for the presence of a compound. Quantitation of Compounds and cGMP. The compound of the invention, cGMP and the internal standard were extracted from plasma and CSF by precipitation. Samples were analyzed using liquid chromatography (LC) with tandem mass spectrometric detection (MS/MS) using electrospray ionization. The standard curve range was from 1 to 1000 ng/mL. Results of the compounds described herein in this assay are illustrated in Table 7 below (3 and 10 mg/kg dose). Statistics were determined by planned comparison t-tests.

[2] = system: R6/2 mice hippocampal slices; test: Synaptic transmission and plasticity (LTP) in R6/2 mice hippocampal slices (Example 8); design: species or system mouse; conditions: R6/2 slices
Procedure: Improvements in synaptic transmission and plasticity, as measured by long term potentiation (LTP), is believed to indicate the potential of a compound to enhance memory. LTP is an electrophysiological phenomena that is commonly referred to as the a cellular phenomenon driving learning and memory.
Preparation of acute mice hippocampal slices. Experiments were carried out with 11 to 12 week-old R6/2 and WT mice provided by the Jackson Laboratory (USA). Hippocampal slices (350 μm thickness) were cut with a Macllwain tissue chopper in an ice-cold oxygenated sucrose solution (Saccharose 250, Glucose 11, NaHCO3 26, KCl 2, NaH2PO4 1.2, MgCl2 7, and CaCl2 0.5 in mM). The slices were incubated 1 hour at room temperature in ACSF of the following composition: Glucose 11, NaHCO3 25, NaCl 126, KCl 3.5, NaH2PO4 1.2, MgCl2 1.3, and CaCl2 2 in mM. Then, the slices were let to recover for at least 1 h.
Slice perfusion and temperature control. During the experiments, the slices were continuously perfused with the ACSF (bubbled with 95% O2-5% CO2) at the rate of 3 mL/min with a peristaltic pump (MEA chamber volume: ˜1 mL). Complete solution exchange in the MEA chamber was achieved 20 s after the switch of solutions. The perfusion liquid was continuously pre-heated at 37° C. just before reaching the MEA chamber with a heated-perfusion cannula (PH01, Multichannel Systems, Reutlingen, Germany). The temperature of the MEA chamber was maintained at 37±0.1° C. with a heating element located in the MEA amplifier headstage.
Input/Output (I/O)curve: from 100 to 800 μA, by 100 μA steps. The stimulus intensity was then set to a fixed value of 250 μA for the short- and long-term synaptic plasticity measurements.
Short-term plasticity properties: two pulses with a decreasing inter-stimuli interval (e.g. 300 ms, 200 ms, 100 ms, 50 ms, 25 ms) were applied. Compound application: fEPSP were recorded for 10 minutes in control conditions (to verify the baseline steadiness) followed by a 15-minute exposure to the compound (or 25 minutes in the presence of vehicle only for control slices). A second I/O protocol and paired-pulse protocol were applied, as described previously, in the continuous presence of the compound.
Long-Term Potentiation (LTP); Following a 10-minute control period (in the presence of the compound or vehicle for control slices), LTP was induced by a 10×TBS. Potentiation of synaptic transmission was then monitored for an additional 60-minute period (in the continuous presence of the compound or vehicle for control slices).

[3] = system: brain activity in awake rats; test: Brain activation in rats measured by fMRI-BOLD (Example 11); format: in vivo, rat; conditions: single IV administration, vs peripherally restricted sGC stimulator
Text: Objective. Functional magnetic resonance imaging or functional MRI (fMRI) is a functional neuroimaging procedure using MRI technology that measures brain activity by detecting changes associated with blood flow. This technique relies on the fact that cerebral blood flow and neuronal activation are coupled. When an area of the brain is in use, blood flow to that region also increases. Awake rats were studied by fMRI to assess changes (“fingerprint”) in brain activity following a single intravenous administration of a compound of the invention
Experimental Design. 24 male Sprague-Dawley rats weighing from 275-350 g were used. Following acclimation, the animals were placed in the restrainer and positioned in the magnet. Catheters were placed in each animal to allow for remote dosing when the animals were in the magnet. Scans were acquired continuously for 5 minutes prior to administration of either a vehicle or a compound of the invention to establish a baseline for the brain activity. Following the 5-minute baseline period, either the vehicle or the compound of the invention was administered to the rat and scans were acquired continuously for 30-45 minutes.

[4] = system: rats; test: Inflammatory pain: carrageenan, paw pressure test (Example 13); format: in vivo, rat; conditions: Compound I-1 p.o. 10 mg/kg, 120 minutes after treatment

Fc1ccccc1Cc1nc(-c2nc(C(F)(F)F)n[nH]2)cn2ccnc12 [Compound I-1, 8-(2-fluorobenzyl)-6-(3-(trifluoromethyl)-1H-1,2,4-triazol-5-yl)imidazo[1,2-a]pyrazine]
CSF Conc. (nM @ 1 h) ([1]; 3 mg/kg PO): 7.2* nM | CSF Conc. (nM @ 6 h) ([1]; 3 mg/kg PO): 6.7 nM | CSF Conc. (nM @ 1 h) ([1]; 10 mg/kg PO): 14.8** nM | CSF Conc. (nM @ 6 h) ([1]; 10 mg/kg PO): 13.8* nM | potentiation of the evoked-response amplitudes, stabilized level ([2]; 7 nM): around 25% | rescue of LTP impairment ([2]; 7 nM): failed to significantly rescue | fEPSP increase at endpoint after HFS (LTP) ([2]; 7 nM (R6/2 control 16±3%, WT 46±5%)): 26±6% | effect on short-term plasticity properties (paired pulses, 25 ms to 300 ms ISI) ([2]; 7 nM, 46 nM or 308 nM, exception 308 nM at 50 ms ISI): None of the evaluated Compound I-1 concentrations (7 nM, 46 nM or 308 nM) displayed a significant effect | effect on overall I/O characteristics ([2]; 7 nM, 46 nM, 308 nM): none of the 3 concentrations displayed a significant effect | potentiation of the evoked-response amplitudes, stabilized level ([2]; 46 nM): around 45% | fEPSP increase at endpoint after HFS (LTP) ([2]; 46 nM (R6/2 control 16±3%, WT 46±5%)): 44±12% | rescue of LTP impairment ([2]; 46 nM and 308 nM): completely restored the LTP deficit | potentiation of the evoked-response amplitudes, stabilized level ([2]; 308 nM): around 35% | fEPSP increase at endpoint after HFS (LTP) ([2]; 308 nM (R6/2 control 16±3%, WT 46±5%)): 37±9% | brain activation (fMRI-BOLD) [3]: a greater region of the brain is activated | % of activity vs. vehicle [4]: 38%
